Laboratory results from ChEMBL document CHEMBL4418308, “cGAS ANTAGONIST COMPOUNDS” (2017).

Legend:
Cyclic GMP-AMP synthase [1] = target: T1, Cyclic GMP-AMP synthase (Homo sapiens, UniProt Q8N884); test: Inhibition of CGAS in human THP1 cells transfected with interferon stimulatory DNA and measured after 16 hrs by Gaussia luciferase reporter gene assay; type: cell-based
Cyclic GMP-AMP synthase [2] = target: T1, Cyclic GMP-AMP synthase; test: Inhibition of CGAS in human THP1 cells transfected with mock Sendai virus and measured after 16 hrs by Gaussia luciferase reporter gene assay; type: cell-based
Cyclic GMP-AMP synthase [3] = target: T1, Cyclic GMP-AMP synthase; test: Inhibition of recombinant His6-SUMO tagged human CGAS expressed in Escherichia coli BL21/pLys cells incubated for 20 mins by Kinase Glo chemiluminescence assay

T1 sequence (Q8N884 whole entry): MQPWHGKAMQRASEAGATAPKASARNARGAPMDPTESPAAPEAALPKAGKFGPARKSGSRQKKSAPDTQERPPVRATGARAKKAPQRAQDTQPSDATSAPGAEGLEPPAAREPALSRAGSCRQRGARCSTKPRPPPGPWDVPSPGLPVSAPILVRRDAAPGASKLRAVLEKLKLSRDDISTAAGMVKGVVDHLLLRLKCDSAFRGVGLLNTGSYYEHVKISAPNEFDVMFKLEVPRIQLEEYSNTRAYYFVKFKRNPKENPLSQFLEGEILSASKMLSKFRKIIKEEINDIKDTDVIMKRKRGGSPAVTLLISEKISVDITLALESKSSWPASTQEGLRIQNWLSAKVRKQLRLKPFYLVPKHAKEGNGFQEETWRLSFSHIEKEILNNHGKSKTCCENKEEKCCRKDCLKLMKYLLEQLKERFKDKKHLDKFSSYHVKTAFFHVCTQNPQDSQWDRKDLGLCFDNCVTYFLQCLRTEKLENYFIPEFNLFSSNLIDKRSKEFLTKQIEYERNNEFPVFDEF

Row | SMILES | IC50 (Cyclic GMP-AMP synthase [1]) [nM] | IC50 (Cyclic GMP-AMP synthase [2]) [nM] | IC50 (Cyclic GMP-AMP synthase [3]) [nM]
1 | CN1C(=O)S/C(=C\c2cc(OCc3cnc(NCc4ccncc4)nc3)c(O)cc2Br)C1=O | 2500 to 10000 | ≥ 10000 | ≤ 500
2 | CN1C(=O)S/C(=C\c2cc3c(-c4cnc(N)nc4)c[nH]c3c(F)c2Br)C1=O | 2500 to 10000 | ≥ 10000 | ≤ 500
3 | O=C1/C(=C/c2cc(OCc3cnc(NCc4ccccn4)nc3)c(O)c(F)c2Br)Sc2ncccc21 | ≥ 10000 | ≥ 10000 | ≤ 500
4 | COc1cc(/C=C2\SC(=O)N(C)C2=O)c(Br)c(F)c1O | 2500 to 10000 | ≥ 10000 | ≤ 500
5 | CN1C(=O)S/C(=C\c2cc(OCC3CCCCC3)c(O)cc2Br)C1=O | 2500 to 10000 | 2500 to 10000 | ≥ 10000
6 | CN1C(=O)S/C(=C\c2cc(OCc3cn(-c4ccncc4)nn3)c(O)cc2Br)C1=O | 2500 to 10000 | ≥ 10000 | ≥ 10000
7 | CCC(Oc1cc(/C=C2\SC(=O)N(C)C2=O)c(Br)c(F)c1O)c1cnc(N)nc1 (stereo not drawn) | 2500 to 10000 | ≥ 10000 | ≤ 500
8 | CN1C(=O)S/C(=C\c2cc(OCc3cnc(NCc4cccnc4)nc3)c(O)cc2Br)C1=O | 2500 to 10000 | ≥ 10000 | ≤ 500
9 | [2H]C([2H])(Oc1cc(/C=C2\SC(=O)N(C)C2=O)c(Br)cc1O)c1cnc(N)nc1 | ≤ 2500 | ≥ 10000 | ≤ 500
10 | CC(C)n1ccc(COc2cc(/C=C3\SC(=O)N(C)C3=O)c(Br)cc2O)cc1=O | 2500 to 10000 | ≥ 10000 | ≥ 10000
11 | CN1C(=O)S/C(=C\c2cc(OCc3cnc4ccccc4c3)c(O)cc2Br)C1=O | 2500 to 10000 | ≥ 10000 | ≥ 10000
12 | CN1C(=O)S/C(=C\c2cc(OCc3ccc(N)nc3)c(O)cc2Br)C1=O | 2500 to 10000 | 2500 to 10000 | ≥ 10000
13 | O=C1/C(=C/c2cc(OCc3cnc(NCc4ccncc4)nc3)c(O)cc2Br)Sc2ncccc21 | ≤ 2500 | ≥ 10000 | ≤ 500
14 | CN1C(=O)S/C(=C\c2cc(OCc3cnc(NC4CC4)nc3)c(O)cc2Br)C1=O | ≤ 2500 | ≥ 10000 | 500 to 10000
15 | COc1cc(/C=C2\SC(=O)N(C)C2=O)c(I)cc1O | 2500 to 10000 | ≥ 10000 | ≤ 500
16 | CN1C(=O)S/C(=C\c2cc(OCc3cnc(N)nc3C3CC3)c(O)cc2Br)C1=O | 2500 to 10000 | ≥ 10000 | ≤ 500
17 | CC(Oc1cc(/C=C2\SC(=O)N(C)C2=O)c(Br)cc1O)c1cncnc1N (stereo not drawn) | 2500 to 10000 | ≥ 10000 | ≤ 500
18 | CC(C)C(=O)N1CCC(COc2cc(/C=C3\SC(=O)N(C)C3=O)c(Br)cc2O)CC1 | 2500 to 10000 | ≥ 10000 | ≥ 10000
19 | CC1C(=O)S/C(=C\c2cc(OC(C)c3cnc(N)nc3C(F)(F)F)c(O)c(F)c2Br)C1=O (stereo not drawn) | 2500 to 10000 | ≥ 10000 | ≤ 500
20 | COCCNc1ncc(COc2cc(/C=C3\SC(=O)N(C)C3=O)c(Br)c(F)c2O)cn1 | 2500 to 10000 | ≥ 10000 | ≤ 500
21 | CN1C(=O)S/C(=C\c2cc(OCc3cnc(Cl)nc3)c(O)cc2Br)C1=O | 2500 to 10000 | ≥ 10000 | ≤ 500
22 | CN1C(=O)S/C(=C\c2cc(OCc3ccnc4[nH]cnc34)c(O)cc2Br)C1=O | ≤ 2500 | ≥ 10000 | ≤ 500
23 | CN1C(=O)S/C(=C\c2cc(OCc3cnc([S+](C)[O-])nc3)c(O)cc2Br)C1=O (stereo not drawn) | 2500 to 10000 | ≥ 10000 | ≤ 500
24 | O=C1/C(=C/c2cc(OC(F)(F)F)c(O)cc2Br)Sc2ncccc21 | 2500 to 10000 | ≥ 10000 | 500 to 10000
25 | CN1C(=O)S/C(=C\c2cc(OCc3ncc(N)cn3)c(O)cc2Br)C1=O | 2500 to 10000 | ≥ 10000 | ≥ 10000
26 | CN1C(=O)S/C(=C\c2cc(OC(F)(F)F)c(O)cc2Br)C1=O | ≤ 2500 | 2500 to 10000 | ≥ 10000
27 | CN1C(=O)S/C(=C\c2cc(OCc3cnc(N)nc3)c(Oc3cnc(N)s3)cc2Br)C1=O | 2500 to 10000 | ≥ 10000 | 500 to 10000
28 | C[S+]([O-])c1ncc(COc2cc(/C=C3\Sc4ncccc4C3=O)c(Br)c(F)c2O)cn1 (stereo not drawn) | 2500 to 10000 | ≥ 10000 | 500 to 10000

Now from value to compound:

Row | IC50 (Cyclic GMP-AMP synthase [1]) [nM] | IC50 (Cyclic GMP-AMP synthase [2]) [nM] | IC50 (Cyclic GMP-AMP synthase [3]) [nM] | SMILES
29 | ≤ 2500 | ≥ 10000 | ≤ 500 | Cc1ncc(COc2cc(/C=C3\Sc4ncccc4C3=O)c(Br)c(F)c2O)cn1
30 | ≤ 2500 | ≥ 10000 | ≤ 500 | CC(Oc1cc(/C=C2\Sc3ncccc3C2=O)c(Br)cc1O)c1cnc(N)nc1 (stereo not drawn)
31 | ≤ 2500 | ≥ 10000 | ≤ 500 | Nc1ncc(COc2cc(/C=C3\Sc4ncccc4C3=O)c(Br)c(F)c2O)cn1
32 | ≤ 2500 | ≥ 10000 | ≤ 500 | Cc1nc(N)ncc1COc1cc(/C=C2\SC(=O)N(C)C2=O)c(Br)c(F)c1O
33 | 2500 to 10000 | ≥ 10000 | ≤ 500 | COCCNc1ncc(COc2cc(/C=C3\Sc4ncccc4C3=O)c(Br)cc2O)cn1
34 | 2500 to 10000 | ≥ 10000 | ≤ 500 | Nc1ncncc1COc1cc(/C=C2\Sc3ncccc3C2=O)c(Br)cc1O
35 | ≤ 2500 | ≥ 10000 | ≤ 500 | CN1C(=O)S/C(=C\c2cc(OCc3cncnc3)c(O)cc2Br)C1=O
36 | ≤ 2500 | ≥ 10000 | ≤ 500 | CN1C(=O)S/C(=C\c2cc(OCc3cncnc3N)c(O)cc2Br)C1=O
37 | ≤ 2500 | ≥ 10000 | ≤ 500 | Cc1nc(N)ncc1COc1cc(/C=C2\SC(=O)N(C)C2=O)c(Br)cc1O
38 | ≤ 2500 | ≥ 10000 | ≤ 500 | CN1C(=O)S/C(=C\c2cc(OCc3cnc(N)nc3)c(O)c(F)c2Br)C1=O
39 | ≤ 2500 | ≥ 10000 | ≤ 500 | CN1C(=O)S/C(=C\c2cc(OCCc3cnc(N)nc3)c(O)c(F)c2Br)C1=O
40 | ≤ 2500 | ≥ 10000 | ≤ 500 | CN1C(=O)S/C(=C\c2cc(OCc3cn[nH]c3)c(O)cc2Br)C1=O
41 | ≤ 2500 | ≥ 10000 | ≤ 500 | CN1C(=O)S/C(=C\c2cc(OCc3cnc(NCCO)nc3)c(O)c(F)c2Br)C1=O
42 | ≤ 2500 | ≥ 10000 | ≤ 500 | Nc1ncc(COc2cc(/C=C3\Sc4ncccc4C3=O)c(Br)cc2O)cn1
43 | ≤ 2500 | ≥ 10000 | ≤ 500 | CN1C(=O)S/C(=C\c2cc(O/C=C/c3cnc(N)nc3)c(O)c(F)c2Br)C1=O
44 | 2500 to 10000 | ≥ 10000 | ≤ 500 | O=C1/C(=C/c2cc(OCc3cnc(NCc4cccnc4)nc3)c(O)c(F)c2Br)Sc2ncccc21
45 | 2500 to 10000 | ≥ 10000 | ≤ 500 | COc1cc(/C=C2\Sc3ncccc3C2=O)c(Br)c(F)c1O
46 | ≤ 2500 | ≥ 10000 | ≤ 500 | CN1C(=O)S/C(=C\c2cc(OCc3cnc(N)nc3)c(O)cc2Br)C1=O
47 | 2500 to 10000 | 2500 to 10000 | ≤ 500 | CC1C(=O)S/C(=C\c2cc(OC(C)c3cnc(Cl)nc3)c(O)c(F)c2Br)C1=O (stereo not drawn)
48 | ≥ 10000 | ≥ 10000 | ≤ 500 | CC(Oc1cc(/C=C2\SC(=O)N(C)C2=O)c(Br)c(F)c1O)C(O)c1cnc(N)nc1 (stereo not drawn)
49 | ≤ 2500 | 2500 to 10000 | ≤ 500 | C[S+]([O-])c1ncc(COc2cc(/C=C3\Sc4ncccc4C3=O)c(Br)cc2O)cn1 (stereo not drawn)
50 | ≤ 2500 | ≥ 10000 | ≤ 500 | COc1cc(/C=C2\SC(=O)N(C)C2=O)c(Br)cc1O
51 | ≤ 2500 | ≥ 10000 | ≤ 500 | O=C1/C(=C/c2cc(OCc3cnc(NCCO)nc3)c(O)cc2Br)Sc2ncccc21
